Experimental data reported in patent publication US7169813B2, “4-oxo-fenretinide, administered alone and in combination with fenretinide, as preventive and therapeutic agent for cancer” (Fondazione IRCCS “Istituto Nazionale Dei Tumori”, priority 2004, dated 2007).
Several values for one entry are separate records, joined by “and”; a condition that tells them apart may be missing. Equal values may be shown once. Read-outs that look alike come from different tables or passages of the source.

Experiments:
A2780/HPR = A2780/HPR clone versus A2780; cited from earlier work
IGROV-1 = experiment: Growth inhibition (sulforhodamine B assay), single agents and combination; type: cell-based, human
Procedure: (§1) The following human ovarian carcinoma cell lines were tested: A2780 was obtained from Dr. R. F. Ozols (National Cancer Institute, Bethesda, Md., USA); IGROV-1 was obtained from Dr. J. Benard (Villejuif, France); OVCA432 was obtained from Dr. R. C. Knapp (Boston, Mass., USA); OAW42 and SKOV-3 were purchased from ATCC (Rockville, Md., USA). A2780/HPR, a 4-HPR— resistant ovarian carcinoma cell line, was obtained in our laboratory by continuous exposure of A2780 cells to increasing concentrations of 4-EPR as previously described (Appierto et al., Br. J. Cancer, 2001, 84:1528–1534; Prinetti et al., J. Biol. Chem., 2003, 278:5574–5583). Briefly, cells surviving 60 transplants in 4-HPR —containing medium (3 transplants at 1 μM, 11 transplants at 2 μM, 8 transplants at 3 μM, and 38 transplants at 5 μM) were cloned by limiting dilution. […] Therefore, A2780/HPR cells were continuously maintained in 5 μM 4-HPR and seeded without 4-HPR in all the experiments performed to test their sensitivity to 4-oxo-4-HPR.
(§2) The following human breast tumor cell lines, obtained from Dr. R. Sutherland (Garvan Institute, Sydney, Australia) were tested: T-47D, BT-20 and MCF-7. The following human neuroblastoma cell lines, purchased from ATCC, were tested: SK-N-BE, SK-N-SH, SK-N-MC, and GI-LI-N. All cell lines were grown in monolayer, in medium containing 10% fetal bovine serum (Invitrogen) in 5% CO2 at 37° C. The medium for A2780, A2780/HPR, IGROV-1, OVCA432, SKOV-3, T-47D, BT-20, MCF-7, GI-LI-N and SK-N-BE cells was RPMI 1640 (Cambrex, Verviers, Belgium) and the medium for OAW42, SK-N-MC and SK-N-SH cells was EMEM (ATCC).
(§3) For the growth inhibition assays, cells were seeded at a density of 3500 cells per well in 96 cluster tissue culture plates, and treated 24 hr after seeding with different concentrations of 4-oxo-4-HPR or 4-HPR. 4-oxo-4-HPR was dissolved in absolute ethanol and 4-HPR (obtained from Dr. J. A. Crowell —NCI Bethesda, Md., USA) was dissolved in Me2SO. […] Control cultures received the same amount of ethanol or Me2SO as the treated cultures. 72 hr after treatment cell number was estimated by using the sulforhodamine B assay according to Monks et al., (J. Natl. Cancer, 1991, 11: 757–766). The survival of treated cells was calculated for the various drug concentrations as percentage of the survival of control cells. The antiproliferative activity of 4-oxo-4-HPR and 4-HPR in each cell line, was tested in three separate experiments and the average values ±SD are reported in FIGS. 2, 3, and 4.
(§4) The antiproliferative effect of the combination of the two drugs, administered at one single dose, was also tested in other ovarian carcinoma cell lines and in breast tumor cell lines. The type of interaction between 4-HPR and 4-oxo-4-HPR was assessed by the method of Drevinko et al., as described in Cancer Biochem. Biophys., 1976, 1:187–195. For this evaluation the drugs were assumed to provide independent effects. The combination index (CI) was calculated as follows: survival fraction (SF) of the combination of 4-HPR+4-oxo-4-HPR divided by (SF 4-HPR×SF 4-oxo-4-HPR). The results for CI are defined as follows: CI=1 indicates an additive effect, CI<1 indicates a supra-additive effect and CI>1 indicates a sub-additive effect.

A2780 [1] = experiment: Apoptosis induction (Cell Death Detection ELISA, DNA fragmentation); type: cell-based, human; settings: 5 μM, 24 hr
Procedure: Although the mechanism of action of 4-HPR is not well understood, its tumor growth inhibitory effects have been attributed to apoptosis induction (Supino et al., Int. J. Cancer, 1996, 65:491–497). The apoptosis inducing effects of 4-oxo-4-HPR were compared with those of 4-HPR in the human ovarian carcinoma cell line A2780 and in its counterpart A2780/HPR, with induced resistance to 4-HPR. Apoptosis was evaluated by a Cell Death Detection ELISA Plus Assay Kit (Roche Diagnostic GmbH, Germany) according to the manufacturer's instructions. This assay quantitates the amount of cytoplasmic histone-associated DNA fragments which increases during apoptosis. Cells were seeded in 96-well cell culture plates and treated the day after with 5 μM 4-oxo-4-HPR or 4-HPR for 24 hr.

ovarian tumor cell lines = experiment: Growth inhibition, ovarian tumor cell lines (FIG. 2); type: cell-based, human; settings: all tested ovarian tumor cell lines; 72 hr
Procedure: as §1, with “4-oxo-4-HPR. […]” for “4-oxo-4-HPR.”
For the growth inhibition assays, cells were seeded at a density of 3500 cells per well in 96 cluster tissue culture plates, and treated 24 hr after seeding with different concentrations of 4-oxo-4-HPR or 4-HPR. […] The survival of treated cells was calculated for the various drug concentrations as percentage of the survival of control cells. […]

A2780 [2] = experiment: Growth inhibition (sulforhodamine B assay), single agents and combination; type: cell-based, human; settings: Homo sapiens, A2780, 72 h, read-out: 50% Inhibitory Concentrations (IC50) at 72 h
Procedure: as §1, §2, §3, §4

[3] = IGROV-1; single agent 1 μM; 72 h; single experiments

Row | SMILES | resistance of A2780/HPR to 4-HPR (A2780/HPR) | IC50 (IGROV-1; Homo sapiens; IGROV-1; 72 h; read-out: 50% Inhibitory Concentrations (IC50) at 72 h) | Survival (% control cells) (IGROV-1; [3]) | induction of apoptosis (DNA fragmentation, fold versus control cells) (A2780 [1]) | reducing tumor cell survival (FIG. 2), compared with 4-HPR, in words (ovarian tumor cell lines) | IC50 (A2780 [2]) | IC50 (IGROV-1; Homo sapiens, IGROV-1, 72 h, read-out: 50% Inhibitory Concentrations (IC50) at 72 h)
1 | CC1=C(/C=C/C(C)=C/C=C/C(C)=C/C(=O)Nc2ccc(O)cc2)C(C)(C)CCC1 [4-HPR, N-(4-hydroxyphenyl)retinamide, reference compound] | 10 fold | 5000 nM | 97 % control cells and 91 % control cells |  |  |  | 
2 | CC1=C(/C=C/C(C)=C/C=C/C(C)=C/C(=O)Nc2ccc(O)cc2)C(C)(C)CCC1=O [4-oxo-4-HPR, 4-oxo-N-(4-hydroxyphenyl)retinamide] |  |  | 96 % control cells and 76 % control cells | higher than that of 4-HPR | more effective than 4-HPR | 500 nM | 2000 nM
